Experimental findings from PMC7827406, “Structure–Activity Relationship (SAR) Study of Spautin-1 to Entail the Discovery of Novel NEK4 Inhibitors” (International Journal of Molecular Sciences, 2021) are described below.

The structures appear in SMILES notation. Like-named read-outs stand apart in the source and are kept apart here.

What all share (experiment): biochemical
What all share (parameters): Eurofins KinaseProfiler full panel at Km ATP, residual kinase activity (%) relative to DMSO

One experiment concerns the target T1, PrKX(h) (Homo sapiens, UniProt P51817).
T1 sequence (P51817 1-358): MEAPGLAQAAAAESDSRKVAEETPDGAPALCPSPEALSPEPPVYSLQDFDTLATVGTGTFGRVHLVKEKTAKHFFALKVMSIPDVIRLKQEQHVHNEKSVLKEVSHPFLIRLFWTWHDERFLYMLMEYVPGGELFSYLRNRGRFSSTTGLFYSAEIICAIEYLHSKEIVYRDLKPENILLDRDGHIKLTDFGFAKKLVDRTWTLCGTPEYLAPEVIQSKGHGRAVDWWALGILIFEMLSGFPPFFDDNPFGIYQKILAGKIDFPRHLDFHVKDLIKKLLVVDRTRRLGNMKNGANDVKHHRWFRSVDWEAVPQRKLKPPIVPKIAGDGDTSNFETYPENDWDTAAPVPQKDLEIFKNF
In a few lines: (§1)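 Compounds screened at 10 µM in radiometric kinase activity assays at Km ATP, reported as remaining kinase activity (%). A KINOMEscan competition-binding screen at 10 µM measured DNA-tagged kinase retained on immobilized active-site ligand by qPCR.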

In another experiment the target is T2, SAPK4(h) (Homo sapiens, UniProt O15264).
T2 construct: gene MAPK13
T2 sequence (O15264 1-365): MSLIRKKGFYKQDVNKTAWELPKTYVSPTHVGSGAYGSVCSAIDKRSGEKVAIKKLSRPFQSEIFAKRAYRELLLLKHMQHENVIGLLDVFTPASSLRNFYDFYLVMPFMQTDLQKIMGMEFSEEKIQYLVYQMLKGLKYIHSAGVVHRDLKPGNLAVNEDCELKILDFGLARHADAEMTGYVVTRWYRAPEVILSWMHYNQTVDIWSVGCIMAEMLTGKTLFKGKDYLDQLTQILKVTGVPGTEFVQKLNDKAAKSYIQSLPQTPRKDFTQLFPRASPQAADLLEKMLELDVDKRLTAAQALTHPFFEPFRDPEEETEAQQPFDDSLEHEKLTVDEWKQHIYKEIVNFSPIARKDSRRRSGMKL
The gist of the method:
as §1

The next experiment has as its target Wee1(h) (Homo sapiens, UniProt P30291). In a few lines: as §1
For a further experiment, the target named is T3, CHK1(h) (Homo sapiens, UniProt O14757).
T3 construct: gene CHEK1
T3 sequence (O14757 1-476): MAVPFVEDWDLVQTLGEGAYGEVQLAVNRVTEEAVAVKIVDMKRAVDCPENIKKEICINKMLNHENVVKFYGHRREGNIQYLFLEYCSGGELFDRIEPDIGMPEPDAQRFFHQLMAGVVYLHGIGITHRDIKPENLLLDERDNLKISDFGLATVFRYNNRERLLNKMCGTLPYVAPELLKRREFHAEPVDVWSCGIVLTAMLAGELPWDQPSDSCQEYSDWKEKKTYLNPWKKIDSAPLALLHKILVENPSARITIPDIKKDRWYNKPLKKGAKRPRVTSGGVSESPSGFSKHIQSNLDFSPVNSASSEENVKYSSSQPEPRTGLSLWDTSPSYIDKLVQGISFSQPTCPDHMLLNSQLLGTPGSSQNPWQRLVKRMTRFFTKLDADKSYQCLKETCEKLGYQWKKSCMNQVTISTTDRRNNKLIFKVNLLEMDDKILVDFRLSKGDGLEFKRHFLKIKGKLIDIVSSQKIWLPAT
The gist of the method: as §1

Another experiment concerns the target T4, MLK2(h) (Homo sapiens, UniProt Q02779).
T4 construct: gene MAP3K10
In a few lines: as §1

In a further experiment the target is T5, GRK2(h) (Homo sapiens, UniProt P25098).
T5 sequence (P25098 1-689): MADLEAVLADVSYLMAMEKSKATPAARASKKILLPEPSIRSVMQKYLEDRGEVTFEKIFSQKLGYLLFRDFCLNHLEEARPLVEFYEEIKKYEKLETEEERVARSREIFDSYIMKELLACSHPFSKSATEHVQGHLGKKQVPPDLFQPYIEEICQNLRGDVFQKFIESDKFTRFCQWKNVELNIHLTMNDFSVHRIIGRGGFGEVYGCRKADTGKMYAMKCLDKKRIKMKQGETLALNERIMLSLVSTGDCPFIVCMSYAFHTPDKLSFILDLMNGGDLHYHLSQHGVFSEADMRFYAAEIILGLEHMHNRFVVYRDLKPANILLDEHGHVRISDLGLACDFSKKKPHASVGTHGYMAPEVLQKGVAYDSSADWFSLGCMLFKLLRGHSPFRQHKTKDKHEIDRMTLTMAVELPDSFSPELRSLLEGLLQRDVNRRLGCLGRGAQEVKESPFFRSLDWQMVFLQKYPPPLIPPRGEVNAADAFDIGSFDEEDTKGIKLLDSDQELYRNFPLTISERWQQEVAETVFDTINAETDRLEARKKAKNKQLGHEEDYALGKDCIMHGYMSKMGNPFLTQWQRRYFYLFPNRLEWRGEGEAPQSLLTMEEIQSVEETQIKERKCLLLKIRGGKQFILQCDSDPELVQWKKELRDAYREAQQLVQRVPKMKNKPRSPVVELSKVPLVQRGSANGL
In a few lines:
as §1

The target in a further experiment is T6, MEK2(h) (Homo sapiens, UniProt P36507).
T6 construct: gene MAP2K2
T6 sequence (P36507 whole entry): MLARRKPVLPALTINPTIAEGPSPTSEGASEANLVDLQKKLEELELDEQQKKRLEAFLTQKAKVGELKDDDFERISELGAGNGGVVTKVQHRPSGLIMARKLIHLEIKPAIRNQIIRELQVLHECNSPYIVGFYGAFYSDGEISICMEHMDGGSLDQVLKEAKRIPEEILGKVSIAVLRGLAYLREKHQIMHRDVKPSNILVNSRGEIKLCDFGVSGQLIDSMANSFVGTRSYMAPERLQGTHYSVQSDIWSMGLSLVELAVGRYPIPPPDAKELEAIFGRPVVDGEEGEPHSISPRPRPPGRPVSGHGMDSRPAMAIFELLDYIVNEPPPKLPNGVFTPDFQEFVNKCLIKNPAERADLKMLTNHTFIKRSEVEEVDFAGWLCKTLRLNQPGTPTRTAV
The gist of the method:
as §1

The mark [1] stands for this setting: read-out: Residual activity (%) 5at.
[2] abbreviates: read-out: Residual activity (%) 5ay.
Where [3] appears, read: read-out: Residual activity (%) 5as.
The mark [4] stands for this setting: read-out: Residual activity (%) Spautin-1 5aa.

T4 sequence (Q02779 whole entry): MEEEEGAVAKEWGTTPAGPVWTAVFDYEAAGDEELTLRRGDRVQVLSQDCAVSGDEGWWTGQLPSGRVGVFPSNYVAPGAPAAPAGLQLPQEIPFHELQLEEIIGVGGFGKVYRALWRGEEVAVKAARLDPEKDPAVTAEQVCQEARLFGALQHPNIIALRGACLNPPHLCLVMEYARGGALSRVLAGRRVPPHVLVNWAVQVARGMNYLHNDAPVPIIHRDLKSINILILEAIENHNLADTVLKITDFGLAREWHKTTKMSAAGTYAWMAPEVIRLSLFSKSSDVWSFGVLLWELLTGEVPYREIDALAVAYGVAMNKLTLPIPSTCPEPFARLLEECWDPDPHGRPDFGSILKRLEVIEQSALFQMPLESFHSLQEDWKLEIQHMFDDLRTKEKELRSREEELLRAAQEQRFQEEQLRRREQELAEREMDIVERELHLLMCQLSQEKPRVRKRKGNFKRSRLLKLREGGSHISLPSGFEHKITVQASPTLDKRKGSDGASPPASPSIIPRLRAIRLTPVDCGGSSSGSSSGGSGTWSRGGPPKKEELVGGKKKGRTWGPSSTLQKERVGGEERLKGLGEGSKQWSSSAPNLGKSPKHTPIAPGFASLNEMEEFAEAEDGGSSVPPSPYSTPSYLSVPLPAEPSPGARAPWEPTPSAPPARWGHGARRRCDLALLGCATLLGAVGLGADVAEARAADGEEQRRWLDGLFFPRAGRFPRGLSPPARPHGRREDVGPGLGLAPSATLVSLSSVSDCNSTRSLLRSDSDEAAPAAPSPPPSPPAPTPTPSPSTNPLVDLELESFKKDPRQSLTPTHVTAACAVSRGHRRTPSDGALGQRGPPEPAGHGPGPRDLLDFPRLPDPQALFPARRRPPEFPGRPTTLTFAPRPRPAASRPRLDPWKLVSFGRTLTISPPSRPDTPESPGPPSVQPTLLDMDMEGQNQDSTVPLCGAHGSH
Wee1(h), sequence (P30291 whole entry): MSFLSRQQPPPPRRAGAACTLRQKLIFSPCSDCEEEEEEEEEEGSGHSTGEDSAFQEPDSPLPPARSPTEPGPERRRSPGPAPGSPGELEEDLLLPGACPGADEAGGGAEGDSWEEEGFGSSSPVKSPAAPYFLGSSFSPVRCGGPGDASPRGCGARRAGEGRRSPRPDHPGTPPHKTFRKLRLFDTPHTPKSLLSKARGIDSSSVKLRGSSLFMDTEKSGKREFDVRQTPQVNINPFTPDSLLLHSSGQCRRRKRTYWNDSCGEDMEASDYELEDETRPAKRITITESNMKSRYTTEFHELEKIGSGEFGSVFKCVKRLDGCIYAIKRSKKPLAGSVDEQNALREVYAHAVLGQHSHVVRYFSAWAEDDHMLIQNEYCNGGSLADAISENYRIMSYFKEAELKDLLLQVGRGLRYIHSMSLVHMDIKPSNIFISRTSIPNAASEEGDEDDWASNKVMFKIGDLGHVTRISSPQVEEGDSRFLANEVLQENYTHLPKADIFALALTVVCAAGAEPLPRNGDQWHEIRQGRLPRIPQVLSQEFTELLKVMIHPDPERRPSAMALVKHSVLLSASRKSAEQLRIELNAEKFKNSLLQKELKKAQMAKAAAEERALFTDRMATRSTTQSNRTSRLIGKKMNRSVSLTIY

Take `Fc1ccc2ncnc(NCCc3ccc(Cl)cc3)c2c1` [5at, N-[2-(4-Chlorophenyl)Ethyl]-6-Fluoro-4-Quinazolinamine]: the remaining activity at 10 µM at PrKX(h) (setting [1]) is 112%; at SAPK4(h) (setting [1]) it was 92%; at Wee1(h) (setting [1]) it was 89%; on CHK1(h) (setting [1]) it was 73%; at MLK2(h) (setting [1]), 93%; at GRK2(h) (setting [1]) it was 107%. Besides, on MEK2(h) (setting [1]), the remaining activity at 10 µM came to 99%.

Consider `COc1ccc2ncnc(Nc3cccc(F)c3)c2c1` [5ay, N-(3-Fluorophenyl)-6-Methoxy-4-Quinazolinamine], for which the remaining activity at 10 µM at PrKX(h) (setting [2]) came to 93%; at SAPK4(h) (setting [2]), 105%; at Wee1(h) (setting [2]), 102%; on CHK1(h) (setting [2]), 76%; at MLK2(h) (setting [2]) it was 96%; on GRK2(h) (setting [2]) it was 95%. Also, the remaining activity at 10 µM on MEK2(h) (setting [2]) turned out to be 95%.

`Fc1ccc(CCNc2ncnc3ccc(F)cc23)cc1` [5as, 6-Fluoro-N-[2-(4-Fluorophenyl)Ethyl]-4-Quinazolinamine]: the remaining activity at 10 µM at PrKX(h) (setting [3]) is 97%; on SAPK4(h) (setting [3]), 105%; at Wee1(h) (setting [3]), 114%; on CHK1(h) (setting [3]) it was 69%; at MLK2(h) (setting [3]) it was 97%; at GRK2(h) (setting [3]), 101%. On MEK2(h) (setting [3]), the remaining activity at 10 µM came out at 96%.

Consider `Fc1ccc(CNc2ncnc3ccc(F)cc23)cc1` [5aa, 6-Fluoro-N-(4-fluorobenzyl)-4-Quinazolinamine], for which the remaining activity at 10 µM at PrKX(h) (setting [4]) stood at 97%; at SAPK4(h) (setting [4]), 97%; on Wee1(h) (setting [4]) it was 109%; at CHK1(h) (setting [4]) it was 80%; on MLK2(h) (setting [4]) it was 95%; on GRK2(h) (setting [4]), 107%. The remaining activity at 10 µM on MEK2(h) (setting [4]) amounted to 92%.
